How the values were obtained:
[1] = tested on: NOD/SCID mice; test: In vivo analysis of homing of CFSE-labeled cells to bone marrow
Description: FIGS. 1a-1i are a graphic representation of flow cytometry analysis of the effect of nicotinamide on homing of hematopoietic stem cells into bone marrow of NOD/SCID mice. Non-cultured mononuclear cells or their entire progeny following 3-week expansion with cytokines and nicotinamide (cytokines+NA), or cytokines alone (cytokines) were labeled with CFSE and infused into sublethally irradiated NOD/SCID mice (10×10^6 cells/mouse for the non-cultured group containing 5×10^4 CD34+ cells and the total progeny of 5×10^4 CD34+ cells following 3-week expansion with or without nicotinamide; 20×10^6 cells/mouse containing 180×10^4 CD34+ cells). FIG. 1a is a histogram of the results of flow cytometry of recipient's bone marrow cells showing homing of CFSE+/CD34+ cells after transplantation. FIG. 1b is a histogram of the results of flow cytometry of recipient's bone marrow cells showing homing of total CFSE+ cells after transplantation. Homing of human cells is presented as number of positive events (cytometry) per 100,000 BM cells analyzed. Each bar represents the average ±SE of 3 independent experiments (6-7 mice/experimental group). […] Total human cells that home to the BM are gated (see area R2) based on low side scatter (y axis) and log fluorescence distribution of CFSC expression (x axis) (FIGS. 1c-1f). The bright fluorescence of CFSE was sufficient to separate labeled human cells from unlabeled murine cells by at least 1 log. Cells gated in R2 were then analyzed for CFSE (x axis) and CD34-APC (y axis) (FIGS. 1g-1i). […] After labeling, cells were washed three times in PBS supplemented with 10% FCS and analyzed by flow cytometry for fluorescence intensity, then injected intravenously into sublethally irradiated NOD/SCID mice (10-20 million cells per mouse). […] Homing of human cells was detected by flow cytometry via visualization of CFSE-stained cells over a background of unlabeled murine cells. The bright fluorescence of CFSE was sufficient to separate labeled human cells from unlabeled murine cells by at least 1 log. […]

[2] = tested on: CD34+ cells; test: In vitro transwell migration assay, CXCL12-induced; assay type: cell-based, human; settings: CXCL12 100 ng/ml, 4 hours, CD34+ cells after 3-week culture with cytokines+NA, compared to cytokines alone or non-cultured cells
Protocol: FIG. 2 is a histogram showing the effect of nicotinamide on in-vitro migration of hematopoietic cells. CXCL12 (100 ng/ml)-induced transwell migration of the purified CD34+ cells either before (non-cultured) or after 3-week culture with cytokines and nicotinamide (cytokines+NA) or cytokines alone (cytokines) (n=3, *p<0.02, **p=0.05) was measured as described hereinbelow. Note the enhanced migration of cells cultured in the presence of nicotinamide; Purified CD34+ cells were cultured in culture bags (American Fluoroseal Co., Gaithersburg, Md.) at 1×10^4 cells/ml in MEMα medium, 10% fetal calf serum (FCS) and cytokines: Thrombopoietin (TPO), interleukin-6 (IL-6), FLT-3 ligand and stem cell factor (SCF), each at a final concentration of 50 ng/ml (Perpo Tech, Inc., Rocky Hill, N.J.), with or without 5 mM nicotinamide (NA) (Sigma Aldrich, Milwaukee, Wis.) and incubated at 37° C. in a humidified atmosphere of 5% CO2 in air. […] Until week 3, the cultures were topped weekly with the same volume of fresh medium and then weekly demi-depopulated. Cell counting, colony forming unit (CFUc) assay and immunophenotype analysis were performed as described hereinbelow. […] After 4 hours, cells were collected from both chambers and counted by flow cytometry (FACSsort, Becton Dickinson and Co, San Jose, Calif., USA). […]

In the case of `NC(=O)c1cccnc1` [nicotinamide], the “homing of CD34+ cells to bone marrow relative to non-cultured CD34+ cells” value ([1]; 3-week culture with cytokines + nicotinamide, 24 hours post transplantation, n=21, p<0.05) is reported as 6 fold, the “homing of cultured cells (MNC) compared to nicotinamide-untreated cells” value ([1]; 3-week culture with cytokines + nicotinamide, total CFSE+ cells, 24 hours post transplantation, n=21, p<0.05) is reported as 2 fold and the “homing to bone marrow over identical cells cultured without nicotinamide” value ([1]; summary statement on Example 2, mononuclear cells exposed to nicotinamide before transplantation) is reported as “sixfold”. The CXCL12-induced migration [2] was “significantly higher”.
